The text below walks through data of ChEMBL document CHEMBL4177666, “Compound design guidelines for evading the efflux and permeation barriers of Escherichia coli with the oxazolidinone class of antibacterials: Test case for a general approach to improving whole cell Gram-negative activity” (Bioorg Med Chem Lett, 2017).

What all share (type): functional
For experiment [1], the system named is Escherichia coli. As to the kind of experiment: Permeability index, ratio of MIC for wild type Escherichia coli MG1655 to MIC for Escherichia coli MG1655 membrane permeabilized mutant in presence of polymyxinnonapeptide.
Experiment [2] concerns Escherichia coli. The experiment is described as follows: Antibacterial activity against gram-negative Escherichia coli MG1655 membrane permeabilized mutant in presence of polymyxinnonapeptide by CLSI broth microdilution method. A general note: Broth dilution looks for growth in wells or tubes with falling amounts of substance.
Experiment [3] has as its system Escherichia coli. As to the kind of experiment: Antibacterial activity against gram-negative Escherichia coli MG1655 expressing AcrAB-TolC efflux pump deletion mutant by CLSI broth microdilution method.
For experiment [4], the system named is Escherichia coli. As to the kind of experiment: Antibacterial activity against gram-negative wild type Escherichia coli MG1655 by CLSI broth microdilution method.
The next experiment concerns Staphylococcus aureus. As to the kind of experiment: Antibacterial activity against methicillin-susceptible Staphylococcus aureus ATCC 29213 by CLSI broth microdilution method.
For experiment [5], the system named is Escherichia coli. The experiment is described as follows: Efflux index, ratio of MIC for wild type Escherichia coli MG1655 to MIC for Escherichia coli MG1655 expressing AcrAB-TolC efflux pump deletion mutant.
In the next experiment the target is Bacterial 70S ribosome. As to the kind of experiment: Inhibition of protein synthesis in Escherichia coli ribosomes incubated for 1 hr at 37 degC by SDS-PAGE and Gaussia luciferase reporter gene assay. (Reporter assays use an easily measured gene product as a stand-in for the process of interest.)

pIC50: −log10 of the molar value. Converted amounts (≈) assume the structure as drawn.

Take `CC(=O)NC[C@H]1CN(c2ccc(-c3ccc(CN)cc3)c(F)c2)C(=O)O1`: the Ratio in the experiment with Escherichia coli [1] is listed as 2; in the experiment with Escherichia coli [5], 8. In addition, the MIC in the experiment on Escherichia coli [2] was found to be 32 µg/mL; with Escherichia coli [3], 8 µg/mL (≈ 22.4 µM); with Escherichia coli [4] it was 64 µg/mL (≈ 179 µM); against Staphylococcus aureus, 2 µg/mL (≈ 5.6 µM).
`O=C(NC[C@H]1CN(c2ccc(-c3ccc(F)c(O)c3)c(F)c2)C(=O)O1)C(F)F`: the Ratio is given as more than 4 in the experiment with Escherichia coli [1] and more than 8 with Escherichia coli [5]. In addition, the MIC with Escherichia coli [2] was 8 µg/mL; in the experiment on Escherichia coli [3] it was 4 µg/mL (≈ 10 µM); against Escherichia coli [4], more than 32 µg/mL; with Staphylococcus aureus, 1 µg/mL (≈ 2.51 µM).
As to `NCc1ccc(-c2ccc(N3C[C@H](CNC(=O)C(F)(F)F)OC3=O)cc2F)cc1`, the Ratio in the experiment with Escherichia coli [1] turned out to be 6; in the experiment with Escherichia coli [5] it was 32. The MIC is 11 µg/mL in the experiment with Escherichia coli [2], 2 µg/mL (≈ 4.86 µM) against Escherichia coli [3], 64 µg/mL (≈ 156 µM) against Escherichia coli [4] and 2 µg/mL (≈ 4.86 µM) in the experiment on Staphylococcus aureus.
Consider `N/C(=N\O)c1ccc(-c2ccc(N3C[C@H](CNC(=O)C(F)(F)F)OC3=O)cc2F)cc1`, for which the Ratio with Escherichia coli [1] is listed as more than 16; in the experiment on Escherichia coli [5], more than 256. The MIC was 16 µg/mL with Escherichia coli [2], less than 2 µg/mL against Escherichia coli [3], more than 256 µg/mL in the experiment on Escherichia coli [4] and less than 0.5 µg/mL in the experiment with Staphylococcus aureus.
As to `CC(=O)NC[C@H]1CN(c2ccc(-c3ccc(F)c(O)c3)c(F)c2)C(=O)O1`, the Ratio was more than 16 in the experiment with Escherichia coli [1] and more than 32 in the experiment on Escherichia coli [5]. Further, the MIC in the experiment on Escherichia coli [2] is 16 µg/mL; against Escherichia coli [3] it was 8 µg/mL (≈ 22.1 µM); with Escherichia coli [4], more than 256 µg/mL; against Staphylococcus aureus it was 2 µg/mL (≈ 5.52 µM).
For `CC(=O)NC[C@H]1CN(c2ccc(-c3ccc(C#N)c(O)c3)c(F)c2)C(=O)O1`, the Ratio in the experiment with Escherichia coli [1] and in the experiment with Escherichia coli [5] was more than 8 each time. For the same molecule, the MIC with Escherichia coli [2] was 32 µg/mL; in the experiment with Escherichia coli [3], 32 µg/mL (≈ 86.6 µM); with Escherichia coli [4], more than 256 µg/mL; in the experiment on Staphylococcus aureus, 2 µg/mL (≈ 5.41 µM).
With `NCc1ncc(-c2ccc(N3C[C@H](CO)OC3=O)cc2F)cc1O`, the Ratio with Escherichia coli [1] and in the experiment on Escherichia coli [5] was 1.6 in each case. The results for the MIC against Escherichia coli [4] and in the experiment with Staphylococcus aureus were 51 µg/mL (≈ 153 µM) and 20 µg/mL (≈ 60 µM), respectively. Also, the pIC50 against Bacterial 70S ribosome was 3.72.
Take `CC(=O)NC[C@H]1CN(c2ccc(-c3ccc(CN)c(O)c3)c(F)c2)C(=O)O1`: the Ratio in the experiment on Escherichia coli [1] is 2; in the experiment with Escherichia coli [5], 16. Also, the MIC in the experiment with Escherichia coli [2] worked out at 64 µg/mL; with Escherichia coli [3], 8 µg/mL (≈ 21.4 µM); in the experiment on Escherichia coli [4] it was 128 µg/mL (≈ 343 µM); in the experiment on Staphylococcus aureus, 4 µg/mL (≈ 10.7 µM).
Turning to `NCc1ccc(-c2ccc(N3C[C@H](CNC(=O)C(F)F)OC3=O)cc2F)cc1`, the Ratio in the experiment with Escherichia coli [1] was 4; with Escherichia coli [5], 32. Besides, the MIC came to 32 µg/mL with Escherichia coli [2], 4 µg/mL (≈ 10.2 µM) in the experiment with Escherichia coli [3], 128 µg/mL (≈ 325 µM) with Escherichia coli [4] and 2 µg/mL (≈ 5.08 µM) with Staphylococcus aureus.
`Nc1cc(-c2ccc(N3C[C@H](CNC(=O)C(F)(F)F)OC3=O)cc2F)ccn1`: the results for the Ratio result in the experiment with Escherichia coli [1] and with Escherichia coli [5] were “>=4” and “>=8”, respectively. Besides, the MIC in the experiment on Escherichia coli [2] was 16 µg/mL; against Escherichia coli [3], 8 µg/mL (≈ 20.1 µM); against Escherichia coli [4] it was more than 32 µg/mL; in the experiment on Staphylococcus aureus, 4 µg/mL (≈ 10 µM).
`O=C1O[C@@H](CO)CN1c1ccc(-c2cc(O)c(F)cc2F)cc1`: the results for the Ratio in the experiment on Escherichia coli [1] and in the experiment with Escherichia coli [5] were more than 4 and more than 8, respectively. Moreover, the MIC in the experiment with Escherichia coli [2] was 64 µg/mL; against Escherichia coli [3], 32 µg/mL (≈ 99.6 µM); against Escherichia coli [4], more than 256 µg/mL; in the experiment with Staphylococcus aureus, 4 µg/mL (≈ 12.5 µM).
`O=C1O[C@@H](CO)CN1c1ccc(-c2cc(O)ccc2F)cc1`: the Ratio with Escherichia coli [1] was more than 8; with Escherichia coli [5], more than 16. In addition, the minimal inhibitory concentration (MIC) was 32 µg/mL with Escherichia coli [2], 16 µg/mL (≈ 52.8 µM) in the experiment on Escherichia coli [3], more than 256 µg/mL against Escherichia coli [4] and 1 µg/mL (≈ 3.3 µM) against Staphylococcus aureus.
`O=C1O[C@@H](CNC(=O)C(F)(F)F)CN1c1ccc(-c2ccc(F)c(O)c2)c(F)c1`: the Ratio with Escherichia coli [1] and in the experiment on Escherichia coli [5] was more than 2 in each case. In addition, the MIC in the experiment on Escherichia coli [2] was 256 µg/mL; with Escherichia coli [3], 256 µg/mL (≈ 615 µM); with Escherichia coli [4], more than 256 µg/mL; against Staphylococcus aureus, 32 µg/mL (≈ 76.9 µM).
As for `N/C(=N\O)c1ccc(-c2ccc(N3C[C@H](CO)OC3=O)cc2)cc1`, the Ratio in the experiment with Escherichia coli [1] is on record as more than 8; with Escherichia coli [5], more than 32. Besides, the MIC was 32 µg/mL with Escherichia coli [2], 8 µg/mL (≈ 24.4 µM) against Escherichia coli [3], more than 256 µg/mL with Escherichia coli [4] and 2 µg/mL (≈ 6.11 µM) against Staphylococcus aureus.
As for `CC(=O)NC[C@H]1CN(c2ccc(-c3ccnc(N)c3)c(F)c2)C(=O)O1`, the Ratio stood at 4 in the experiment on Escherichia coli [1] and 16 in the experiment with Escherichia coli [5]. The MIC was found to be 32 µg/mL in the experiment on Escherichia coli [2], 8 µg/mL (≈ 23.2 µM) with Escherichia coli [3], 128 µg/mL (≈ 372 µM) with Escherichia coli [4] and 2 µg/mL (≈ 5.81 µM) with Staphylococcus aureus.
On to `CC(=O)NC[C@H]1CN(c2ccc(N3CCOCC3)c(F)c2)C(=O)O1` [LINEZOLID], for which the Ratio in the experiment with Escherichia coli [1] was found to be 3.6; in the experiment on Escherichia coli [5], 12. The MIC stood at 36 µg/mL with Escherichia coli [2], 11 µg/mL (≈ 32.6 µM) against Escherichia coli [3], 130 µg/mL (≈ 385 µM) in the experiment on Escherichia coli [4] and 3.1 µg/mL (≈ 9.19 µM) in the experiment with Staphylococcus aureus. This molecule had a negative logarithm of the IC50 (pIC50) against Bacterial 70S ribosome of 4.62.

In general, MIC refers to the lowest concentration that inhibits growth of the organism. A word on the pIC50: it is the IC50 on a negative log10 scale, so that one unit is a factor of ten. A lower pIC50 goes with a large IC50.
